One assay relates to T98g cells. Kind of assay: Cell viability assay (WST-1), toxic potency and efficacy at T98g cells. The assay is classed as cell-based. As to conditions: Homo sapiens, 72 h; for Emax: read-out: Toxic potency at T98g cells (percent efficacy); for EC50: read-out: Toxic potency at T98g cells potency μM; for cytotoxicity at 10 µM: read-out: Activity at killing T98g cells percent efficacy at 10 μM. How it is done: (§1) Cells were plated media supplemented with 10% serum in 96-well plates (10^4 cells per wellI; 0.1 ml per well). Once they reached ˜70% confluence, they were rinsed with PBS and kept for an additional 24 hrs in media supplemented with 1% serum, at which time drugs or vehicle (DMSO, 0.1%, prepared in 10 μl serum-free media) were directly added to each well. After 3 days, cell viability was assessed using the Cell Proliferation Reagent WST-1 (Roche, Indianapolis, Ind.). Briefly, WST-1 reagent (10 μl) was added to each well for 3 hrs at 37° C. with 5% CO2 and WST-1 products were read at 450 nm using Packard SpectraCount™.
Because the strongest toxic effect of WIN55212-2 was measured in T98g cells, these cells are used as readout to study the structure activity relationship (SAR) of AAI compounds at inducing cell death through AAI receptors.
(Formazan colour is commonly taken as a measure of viable cells.)

For assay [1], the system named is T98g, MDA231 and sknmc cells. Briefly: Cell viability assay, killing of CB1/CB2-lacking cell lines. To be noted: for potencies and efficacies at killing T98g, MDA231 and sknmc cells: in words. In kind it is cell-based, human. How it is done:
as §1
The expression level of CB1 and CB2 mRNA is determined by qPCR in eight human cell lines and found three, T98g, MDA231 and sknmc cells, that lack CB1 and CB2 mRNA (Table 1).
Based on this evidence, it was determined if WIN55212-2 differentially kills T98g, MDA231 and sknmc cells, which provides an index of AAI receptor functionality in these cells. Also tested is Δ^9-THC (classic cannabinoid) and CP55940 (non-classical cannabinoid).

Assay [2] has as its system protein expressed by NG108-15 cells. As to conditions: cited from earlier work.
The target of the next assay is T1, CB1 (Mus musculus, UniProt P47746).
T1 construct: plasmids containing full coding region of mouse CB1 and CB2; expressed in transfected cells
Kind of assay: Radioligand competition binding, [3H]-CP55940, CB1-expressing HEK293 membranes. As to conditions: FIG. 2 (CB1 not shown). How it is done: (§2) Stable CB1 and CB2 expressing HEK293 cell lines were generated using plasmids containing full coding region of mouse CB1 and CB2.
(§3) Fragments were amplified from total RNA of cell lines by reverse transcriptase-polymerase chain reaction (RT-PCR). Sequence was confirmed and the fragment was cloned into the EcoRI site of the pIRES2-eGFP-express vector. Cells were grown to approximately 80% confluence in 10 cm cell culture dishes, transfected with the cDNA pIRES-eGFP-vector containing the murine CB1 or CB2 receptor using LipofectAMINE™ 2000 reagent in the serum-free media Opti-MEM 1 according to the manufacturer's description. Cells were subject to FACS sorting 48 h after transfection and single cell sorted based on dsRed expression into 96-well plates. Of the dsRed expressing positive clones, 3 were validated for CB1 and CB2 protein expression by radioligand binding analysis (methods discussed below).
(§4) Cells were grown to 90% confluence, rinsed twice with 1×PBS and stored at −80° C. until further use. To prepare crude cellular membrane fractions, dishes were removed from −80° C. and thawed at room temperature for 5 min. Once thawed, cells were lysed with ice-cold homogenization buffer (50 mM Tris, 1 mM EDTA, 3 mM MgCl2) and gently scraped from the dish. Total cell lysates from 3-5 dishes were collected on ice in 3 ml of ice-cold homogenization buffer. Cells were homogenized at 6,500 rpm (PRO Scientific, Oxford, Conn.) twice for 10 sec and centrifuged at 11,500 rpm for 20 min at 4° C. Supernatants were discarded and cell pellets were resuspended in homogenization buffer and triturated 10 times in ice-cold homogenization buffer. Crude cellular membrane homogenates were stored at −80° C. until further use. On the day of experiments, frozen homogenates were thawed at room temperature, gently triturated 10 times and subsequently dounce homogenized in a 7 ml glass tissue grinder (Wheaton Science Products, Millville, N.J.) by 5 strokes while on ice. […]

The target in another assay is T2, CB2 (Mus musculus, UniProt P47936).
T2 construct: plasmids containing full coding region of mouse CB1 and CB2; expressed in transfected cells
Kind of assay: Radioligand competition binding, [3H]-CP55940, CB2-expressing HEK293 membranes. As to conditions: FIG. 2. How it is done: as §2, §3, §4
A general note: Loss of bound radioactivity is the signal in a displacement assay; it reports binding, not function.

Assay [3] relates to homogenates prepared from CB1−/− mice cerebellum. To be noted: insensitive to SR144528; cited from earlier work.
Assay [4] relates to hippocampal slices prepared from CB1−/− mice. As to conditions: blocked by capsazepine; cited from earlier work.

T2 sequence (P47936 whole entry): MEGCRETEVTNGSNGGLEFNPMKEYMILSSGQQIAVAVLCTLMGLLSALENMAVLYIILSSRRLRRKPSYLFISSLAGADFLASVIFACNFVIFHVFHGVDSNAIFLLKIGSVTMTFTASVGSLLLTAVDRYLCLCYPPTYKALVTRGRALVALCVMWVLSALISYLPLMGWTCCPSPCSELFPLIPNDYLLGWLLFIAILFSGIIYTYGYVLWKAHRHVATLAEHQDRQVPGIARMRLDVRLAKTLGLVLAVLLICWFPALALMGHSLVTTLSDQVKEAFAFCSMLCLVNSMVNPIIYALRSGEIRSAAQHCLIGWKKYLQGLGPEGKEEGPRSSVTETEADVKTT
T1 sequence (P47746 whole entry): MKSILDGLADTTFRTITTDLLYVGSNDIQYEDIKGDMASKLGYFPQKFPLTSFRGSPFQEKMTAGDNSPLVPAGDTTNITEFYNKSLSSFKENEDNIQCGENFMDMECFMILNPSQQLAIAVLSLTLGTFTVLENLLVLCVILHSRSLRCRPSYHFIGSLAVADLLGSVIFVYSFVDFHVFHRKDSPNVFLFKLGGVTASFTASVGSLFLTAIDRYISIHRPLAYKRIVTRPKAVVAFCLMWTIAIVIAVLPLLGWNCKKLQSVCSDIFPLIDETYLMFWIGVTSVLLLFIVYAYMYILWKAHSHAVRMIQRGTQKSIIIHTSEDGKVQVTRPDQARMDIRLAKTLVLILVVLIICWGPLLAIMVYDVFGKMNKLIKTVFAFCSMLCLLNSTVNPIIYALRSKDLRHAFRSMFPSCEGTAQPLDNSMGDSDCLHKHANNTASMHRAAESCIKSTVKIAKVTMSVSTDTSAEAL

Take `CC(=O)c1c(C)n(CCCOc2ccccc2)c2ccccc12` [TK-14]: in the assay with T98g cells, the Emax is 92% and the EC50 amounted to 40 µM.
In the case of `CCCCCc1cc(O)c2c(c1)OC(C)(C)[C@@H]1CCC(C)=C[C@@H]21` [THC], the “potencies and efficacies at killing T98g, MDA231 and sknmc cells” value in assay [1] is “inconsistent potencies and efficacies”.
For the molecule `Cc1c(C(=O)c2cccc3ccccc23)c2ccccc2n1C` [JWH-042], in the assay on T98g cells, the Emax is 71% and the EC50 is 3.1 µM.
Turning to `CCCn1c(C)c(C(=O)c2ccc(C)c3ccccc23)c2ccccc21` [JWH-148], in the assay on T98g cells, the Emax was 48% and the EC50 stood at 2 µM.
Regarding `COc1ccc2c(c1)c(C(=O)N1CCCC(c3nnc4ccccn34)C1)c(C)n2C` (centres unmarked) [TK11], the cytotoxicity at 10 µM in the assay on T98g cells was found to be 10%.
For `CCCn1cc(C(=O)c2ccc(C)c3ccccc23)c2ccccc21` [JWH-120], the cytotoxicity at 10 µM with T98g cells turned out to be 0%.
`O=C(c1cccc2ccccc12)c1cn(CCN2CCOCC2)c2ccccc12` [JWH-200]: in the assay on T98g cells, the Emax was found to be 48% and the EC50 was 21 µM.
In the case of `O=C1CCCc2c1c1ccccc1n2Cc1ccccc1` [TK7], the cytotoxicity at 10 µM in the assay on T98g cells is 19%.
Regarding `Cc1c(C(=O)Cn2cnc3ccccc3c2=O)c2ccccc2n1C` [TK5], the cytotoxicity at 10 µM with T98g cells is 3%.
Regarding `Cc1c(C(=O)c2ccccc2)c2ccccc2n1CC(=O)N1CCOCC1` [TK16], the cytotoxicity at 10 µM in the assay on T98g cells stood at 3%.
In the case of `CC(=O)c1c(C)n(CCOc2cccc3ccccc23)c2ccccc12` [TK-15], in the assay on T98g cells, the Emax was 62% and the EC50 worked out at 45 µM.
As to `Cc1ccc(C(=O)c2c3n(c4ccccc24)CCCC3)c2ccccc12` [CBX-005, (4-methylnaphthalen-1-yl)(6,7,8,9-tetrahydropyrido[1,2-a]indol-10-yl)methanone], in the assay with T98g cells, the Emax is 64% and the EC50 was found to be 1.2 µM.
For `Cc1ccc(C(=O)c2c(C)n(CCN3CCOCC3)c3ccccc23)c2ccccc12` [TK-18], in the assay on T98g cells, the Emax amounted to 48% and the EC50 was determined as 3 µM.
On to `COc1ccc2c(c1)c(C(O)N1CCCC(c3nnc4ccccn34)C1)c(C)n2C` (centres unmarked) [TK12], for which the cytotoxicity at 10 µM in the assay with T98g cells came out at 16%.
In the case of `Cc1ccc(C(=O)c2c(C)n(CCN3CCOCC3)c3cc(Cl)ccc23)c2ccccc12` [CBX-004, (6-chloro-2-methyl-1-(2-morpholinoethyl)-1H-indol-3-yl)(4-methylnaphthalen-1-yl)methanone], in the assay with T98g cells, the Emax turned out to be 68% and the EC50 was 2 µM.
Consider `CCCn1c(C)c(C(=O)c2cccc3ccccc23)c2ccccc21` [JWH-015, (2-methyl-1-propyl-1H-indol-3-yl)(naphthalen-1-yl)methanone], for which, in the assay on T98g cells, the Emax was found to be 58% and the EC50 came to 1.3 µM.
For `CC(=O)c1c(C)n(CCOc2ccccc2)c2ccccc12` [TK-2], in that order: 81% and 3.1 µM.
Take `CCCCCCC(C)(C)c1ccc([C@@H]2C[C@H](O)CC[C@H]2CCCO)c(O)c1` [CP55940]: in assay [1], the “potencies and efficacies at killing T98g, MDA231 and sknmc cells” value is “inconsistent potencies and efficacies”. Moreover, the “competition for WIN-2 binding in NG108-15 cells” value in assay [2] was “did not compete”.
Regarding `COCCn1cc(C(=O)N2CCCC(CN(C)C)C2)c2ccccc21` (centres unmarked) [TK9], in the assay with T98g cells, the cytotoxicity at 10 µM was 0%.
On to `Cc1c(C(=O)c2cccc3ccccc23)c2cccc3c2n1[C@@H](CN1CCOCC1)CO3` [WIN55212-2], for which, in the assay with T98g cells, the Emax came out at 87% and the EC50 was determined as 1.5 µM. In addition, the EC50 in assay [1] (Homo sapiens, range over the three cell lines (FIG. 1), read-out: potency at killing T98g, MDA231 and sknmc cells) is 1500 to 2900 nM. In addition, the “gradual toxic efficacy across cell lines” value in assay [1] (rank order of cell lines) is “T98g>MDA>sknmc”. Also, at CB1, the “competition for [3H]-CP55940 binding at CB1” value is “competes”. Besides, the “competition for [3H]-CP55940 binding at CB2” value on CB2 is “competes”. Moreover, the “binding affinity to a protein expressed by NG108-15 cells” value in assay [2] was “nanomolar affinity”. In addition, the “[35S]-GTPγS binding” value in assay [3] is “increase”. Besides, the excitatory transmission result in assay [4] was “inhibit”.
For `Cc1ccc(C(=O)c2c(C)n(CCN3CCOCC3)c3ncccc23)c2ccccc12` [CBX-003, (2-methyl-1-(2-morpholino ethyl)-1H-pyrrolo[2,3-b]pyridin-3-yl)(4-methylnaphthalen-1-yl)methanone], in the assay with T98g cells, the Emax is 71% and the EC50 was determined as 5 µM.
For `CCn1c(C)c(C(=O)c2cccc3ccccc23)c2ccccc21` [JWH-043], in that order: 84% and 6.9 µM.
With `Cc1nccn1CC1CCc2c(c3ccccc3n2C)C1=O` (centres unmarked) [TK3], the cytotoxicity at 10 µM in the assay with T98g cells is 11%.
As to `Cc1ccc(C(=O)c2c(C)n(CCN3CCOCC3)c3ccc(Cl)cc23)c2ccccc12` [CBX-002, (5-chloro-2-methyl-1-(2-morpholino ethyl)-1H-indol-3-yl)(4-methylnaphthalen-1-yl)methanone], in the assay with T98g cells, the Emax is 45% and the EC50 stood at 30 µM.
`CC1=C(CCN2C(=O)COc3ccccc32)c2ccccc2C1C` (centres unmarked) [TK4]: the cytotoxicity at 10 µM in the assay on T98g cells amounted to 10%.
As to `Cc1c(CNN2CCOCC2)nn(C)c1C` [TK-1], the cytotoxicity at 10 µM with T98g cells stood at 6%.
In the case of `CCCCCn1cc(C(=O)c2cccc3ccccc23)cc1-c1cc(C)cc(O)c1` [JWH-370], the cytotoxicity at 10 µM in the assay on T98g cells stood at 11%.
As to `COc1ccc(C(=O)c2c(C)n(CCN3CCOCC3)c3ccccc23)cc1` [Pravadoline], in the assay with T98g cells, the Emax turned out to be 88% and the EC50 is 22 µM.
`Cn1cc(C(=O)N2CCCc3ccccc32)c2ccccc21` [TK10]: in the assay with T98g cells, the cytotoxicity at 10 µM stood at 0%.
With `COCCn1c(C)c(C(=O)N2CCC3(CC2)NC(=O)N(C)C3=O)c2ccccc21` [TK-8], in the assay on T98g cells, the Emax stood at 55% and the EC50 stood at 886 µM.
For `Cc1c(C(=O)C(F)(F)F)c2ccccc2n1CC(=O)NCc1ccccc1` [TK6], the cytotoxicity at 10 µM in the assay on T98g cells amounted to 8%.
In the case of `Cc1ccc(C(=O)c2c(C)n(C)c3ccccc23)c2ccccc12` [JWH-450, (1,2-dimethyl-1H-indol-3-yl)(4-methylnaphthalen-1-yl)methanone], in the assay on T98g cells, the Emax turned out to be 66% and the EC50 was 2 µM.
On to `Cc1ccc(C(=O)c2c(C)n(CCN3CCOCC3)c3cc(Cl)cc(Cl)c23)c2ccccc12` [CBX-007, (4,6-dichloro-2-methyl-1-(2-morpholino ethyl)-1H-indol-3-yl)(4-methylnaphthalen-1-yl)methanone], for which, in the assay with T98g cells, the Emax came out at 56% and the EC50 is 0.6 µM.

The record behind these values is patent publication US9034895B2, “Composition and methods for treating glioblastoma” (University of Washington Through its Center for …, priority 2010, dated 2015).
